Patent US8962648B2, “Tricyclic compounds and PBK inhibitors containing the same” (OncoTherapy Science, Inc., priority 2010, dated 2015)
Counter-ions that a name gives are not always drawn. Like-named read-outs stand apart in the source and are kept apart here.

Assays:
T47D cells = assay: Cell-based assay, cellular growth (Cell Counting Kit-8, 72 hours)
Protocol: (§1) 100 micro-L of cell suspension was seeded onto 96-well microtiter plate (ViewPlate-96FTC, PerkinElmer). […] Cellular growth was determined using Cell Counting Kit-8 (DOJINDO) at 72 hours after the exposure of the candidate inhibitors. […] Accurate IC50 values were calculated as described previously.

BT-549 cells = assay: as above; settings: Homo sapiens, BT549 cells
Protocol: as §1

A549 cells = assay: as above
Protocol: as §1

HT-1197 cells = assay: Cell-based assay, cellular growth (Cell Counting Kit-8, 72 hours), PBK-negative control cells
Protocol: as §1

PBK = PBK (Homo sapiens (Human), UniProt Q96KB5); assay: Kinase assay (IMAP fluorescence polarization, FITC-labeled histone H3 peptide); type: biochemical
Protocol: PBK activity was determined in the presence or absence of compounds using fluorescein isothiocyanate-labeled (FITC-labeled) histone H3 peptide as a substrate. […] The serially diluted compounds, 0.8 ng/micro-L PBK (Carna Biosciences) and 100 nM FITC-labeled histone H3 peptide were reacted in a reaction buffer (20 mM HEPES, 0.01% Tween-20, 0.3 mM MgCl2, 2 mM dithiothreitol, 50 micro-M ATP, pH 7.4) at room temperature for 1 hour. The reaction was stopped by the addition of three fold assay volume of progressive binding solution. […] IC50 values were calculated by nonlinear four parameter fit using SigmaPlot, version 10.0 (Systat Software, Inc.).

[1] = PBK 0.8 ng/micro-L, 50 micro-M ATP, 100 nM FITC-labeled histone H3 peptide, room temperature 1 hour
[2] = Homo sapiens, HT1197 cells (PBK-negative control)
[3] = HT1197 cells (PBK-negative control), hydrobromide
[4] = PBK 0.8 ng/micro-L, 50 micro-M ATP, 100 nM FITC-labeled histone H3 peptide, room temperature 1 hour, hydrobromide

Chain of PBK (Q96KB5 whole entry): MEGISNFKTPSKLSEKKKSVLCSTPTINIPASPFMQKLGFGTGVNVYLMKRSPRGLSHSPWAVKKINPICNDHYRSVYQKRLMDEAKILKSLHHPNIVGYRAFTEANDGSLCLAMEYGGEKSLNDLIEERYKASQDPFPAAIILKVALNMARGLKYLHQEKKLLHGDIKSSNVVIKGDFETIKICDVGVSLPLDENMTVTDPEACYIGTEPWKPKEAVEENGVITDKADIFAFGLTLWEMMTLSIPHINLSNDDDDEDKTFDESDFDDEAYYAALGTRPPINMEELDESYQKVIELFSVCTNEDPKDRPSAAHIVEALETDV

| IC50 (T47D cells; Homo sapiens, T47D, 72 h) | IC50 (BT-549 cells) | IC50 (A549 cells; Homo sapiens, A549, 72 h) | IC50 (PBK; [1]) | Compound | IC50 (HT-1197 cells; Homo sapiens, HT1197, 72 h) | IC50 (PBK) | further results |
| --- | --- | --- | --- | --- | --- | --- | --- |
| 250 nM | 170 nM | 210 nM | 45 nM | NCCc1ccc(-c2c(O)cc(Br)c3[nH]c(=O)c4sccc4c23)cc1 [Compound 1142, 9-(4-(2-aminoethyl)phenyl)-6-bromo-8-hydroxythieno[2,3-c]quinolin-4(5H)-one hydrochloride] | 1000 nM |  |  |
| 450 nM | 220 nM | 270 nM | 2 nM | COc1ccc2[nH]c(=O)c3sccc3c2c1-c1ccc([C@@H](C)CN)cc1 [Compound 1161, (R)-9-(4-(1-aminopropan-2-yl)phenyl)-8-methoxythieno[2,3-c]quinolin-4(5H)-one hydrochloride] | 820 nM |  |  |
| 26 nM | 13 nM | 17 nM | 4.4 nM | C[C@@H](CN)c1ccc(-c2c(O)cc(Cl)c3[nH]c(=O)c4sccc4c23)cc1 [Compound 1166, (R)-9-(4-(1-aminopropan-2-yl)phenyl)-6-chloro-8-hydroxythieno[2,3-c]quinolin-4(5H)-one hydrochloride] | 120 nM |  |  |
| 38 nM | 24 nM | 27 nM | 17 nM | C[C@@H](CN)c1ccc(-c2c(O)cc(Br)c3[nH]c(=O)c4sccc4c23)cc1 [Compound 1176, (R)-9-(4-(1-aminopropan-2-yl)phenyl)-6-bromo-8-hydroxythieno[2,3-c]quinolin-4(5H)-one hydrochloride] | 100 nM |  |  |
| 860 nM | 450 nM | 630 nM | 3 nM | COc1ccc2[nH]c(=O)c3sccc3c2c1-c1ccc(C(C)CN)c(F)c1 (stereo not drawn) [Compound 1179, 9-(4-(1-aminopropan-2-yl)-3-fluorophenyl)-8-methoxythieno[2,3-c]quinolin-4(5H)-one hydrochloride] | 1900 nM |  |  |
| 190 nM | 190 nM | 200 nM | 1.3 nM | CNC[C@H](C)c1ccc(-c2c(O)ccc3[nH]c(=O)c4sccc4c23)cc1 [Compound 1187, (R)-8-hydroxy-9-(4-(1-(methylamino)propan-2-yl)phenyl)thieno[2,3-c]quinolin-4(5H)-one hydrochloride] | 320 nM |  |  |
| 1400 nM |  | 900 nM | 60 nM | Cc1cc(O)c(-c2ccc(N(C)CCN)cc2)c2c1[nH]c(=O)c1sccc12 [Compound 1400, 9-(4-((2-aminoethyl)(methyl)amino)phenyl)-8-hydroxy-6-methylthieno[2,3-c]quinolin-4(5H)-one hydrochloride] | 2800 nM |  |  |

Continued, compound first:

| Compound | IC50 (T47D cells; Homo sapiens, T47D, 72 h) | IC50 (BT-549 cells) | IC50 (A549 cells; Homo sapiens, A549, 72 h) | IC50 (PBK; [1]) | IC50 (HT-1197 cells; Homo sapiens, HT1197, 72 h) | IC50 (PBK) | further results |
| --- | --- | --- | --- | --- | --- | --- | --- |
| CC(N)c1ccc(-c2c(O)cc(Cl)c3[nH]c(=O)c4sccc4c23)cc1 (stereo not drawn) [Compound 1041, 9-(4-(1-aminoethyl)phenyl)-6-chloro-8-hydroxythieno[2,3-c]quinolin-4(5H)-one hydrochloride] | 340 nM | 190 nM | 160 nM |  | 650 nM | 12 nM |  |
| CN[C@H](C)c1ccc(-c2c(O)ccc3[nH]c(=O)c4sccc4c23)cc1 [Compound 1052, (R)-8-hydroxy-9-(4-(1-(methylamino)ethyl)phenyl)thieno[2,3-c]quinolin-4(5H)-one hydrochloride] | 320 nM | 170 nM | 170 nM | 1.3 nM | 450 nM |  |  |
| C[C@@H](N)c1ccc(-c2c(O)cc(Cl)c3[nH]c(=O)c4sccc4c23)cc1 [Compound 1081, (R)-9-(4-(1-aminoethyl)phenyl)-6-chloro-8-hydroxythieno[2,3-c]quinolin-4(5H)-one hydrochloride] | 170 nM | 86 nM | 100 nM |  | 390 nM | 8.6 nM |  |
| CC(CN(C)C)c1ccc(-c2c(O)ccc3[nH]c(=O)c4sccc4c23)cc1 (stereo not drawn) [Compound 1112, 9-(4-(1-(dimethylamino)propan-2-yl)phenyl)-8-hydroxythieno[2,3-c]quinolin-4(5H)-one hydrochloride] |  | 210 nM |  |  |  | 3.3 nM | IC50 (T47D cells; Homo sapiens): 470 nM; IC50 (A549 cells; Homo sapiens): 250 nM; IC50 (HT-1197 cells; [2]): 640 nM |
| C[C@H](c1ccc(-c2c(O)cc(Cl)c3[nH]c(=O)c4sccc4c23)cc1)N(C)C [Compound 1126, (R)-6-chloro-9-(4-(1-(dimethylamino)ethyl)phenyl)-8-hydroxythieno [2,3-c]quinolin-4(5H)-one hydrochloride] | 290 nM | 140 nM | 110 nM | 42 nM | 320 nM |  |  |
| CN[C@H](C)c1ccc(-c2c(O)cc(Cl)c3[nH]c(=O)c4sccc4c23)cc1 [Compound 1132, (R)-6-chloro-8-hydroxy-9-(4-(1-(methylamino)ethyl)phenyl)thieno[2,3-c]quinolin-4(5H)-one hydrochloride] | 190 nM | 97 nM | 90 nM | 14 nM | 320 nM |  |  |
| NCCc1ccc(-c2c(O)cc(Cl)c3[nH]c(=O)c4sccc4c23)cc1 [Compound 1133, 9-(4-(2-aminoethyl)phenyl)-6-chloro-8-hydroxythieno[2,3-c]quinolin-4(5H)-one hydrochloride] | 230 nM | 150 nM | 180 nM |  | 870 nM | 20 nM |  |
| CC(CN)c1ccc(-c2c(O)cc(Cl)c3[nH]c(=O)c4sccc4c23)cc1 (stereo not drawn) [Compound 1136, 9-(4-(1-aminopropan-2-yl)phenyl)-6-chloro-8-hydroxythieno[2,3-c]quinolin-4(5H)-one hydrochloride] | 57 nM | 32 nM | 35 nM | 8.6 nM | 180 nM |  |  |
| COc1ccc2[nH]c(=O)c3sccc3c2c1-c1ccc(S(=O)(=O)NCCCl)cc1 [Compound 1139, N-(2-chloroethyl)-4-(8-methoxy-4-oxo-4,5-dihydrothieno[2,3-c]quinolin-9-yl)benzenesulfonamide] |  | 17 nM |  | 70 nM |  |  | IC50 (T47D cells; Homo sapiens): 200 nM; IC50 (A549 cells; Homo sapiens): 23 nM; IC50 (HT-1197 cells; [2]): 14000 nM |
| C[C@@H](CN(C)C)c1ccc(-c2c(O)ccc3[nH]c(=O)c4sccc4c23)cc1 [Compound 1188, (R)-9-(4-(1-(dimethylamino)propan-2-yl)phenyl)-8-hydroxythieno[2,3-c]quinolin-4(5H)-one hydrochloride] |  | 160 nM |  |  |  | 2.5 nM | IC50 (T47D cells; Homo sapiens): 290 nM; IC50 (A549 cells; Homo sapiens): 160 nM; IC50 (HT-1197 cells; [2]): 430 nM |
| Cc1cc(O)c(-c2ccc([C@H](C)CN)c(F)c2)c2c1[nH]c(=O)c1sccc12 [Compound 1304, (S)-9-(4-(1-aminopropan-2-yl)-3-fluorophenyl)-8-hydroxy-6-methylthieno[2,3-c]quinolin-4(5H)-one hydrobromide] |  |  |  |  |  |  | IC50 (T47D cells; hydrobromide): 120 nM; IC50 (A549 cells; hydrobromide): 99 nM; IC50 (HT-1197 cells; [3]): 340 nM; IC50 (PBK; [4]): 13 nM |
| CNC[C@H](C)c1ccc(-c2c(O)cc(C)c3[nH]c(=O)c4sccc4c23)cc1 [Compound 1306, (R)-8-hydroxy-6-methyl-9-(4-(1-(methylamino)propan-2-yl)phenyl)thieno[2,3-c]quinolin-4(5H)-one hydrochloride] |  |  |  |  |  |  | IC50 (T47D cells; hydrochloride): 35 nM; IC50 (A549 cells; hydrochloride): 20 nM; IC50 (HT-1197 cells; HT1197 cells (PBK-negative control), hydrochloride): 73 nM; IC50 (PBK; PBK 0.8 ng/micro-L, 50 micro-M ATP, 100 nM FITC-labeled histone H3 peptide, room temperature 1 hour, hydrochloride): 7.3 nM |
| Cc1cc(O)c(-c2ccc([C@@H](C)CN)c(F)c2)c2c1[nH]c(=O)c1sccc12 [Compound 1319, (R)-9-(4-(1-aminopropan-2-yl)-3-fluorophenyl)-8-hydroxy-6-methylthieno[2,3-c]quinolin-4(5H)-one hydrobromide] |  |  |  |  |  |  | IC50 (T47D cells; hydrobromide): 16 nM; IC50 (A549 cells; hydrobromide): 14 nM; IC50 (HT-1197 cells; [3]): 54 nM; IC50 (PBK; [4]): 3.4 nM |
| Cc1cc(O)c(-c2ccc([C@@H](C)CN(C)C)cc2)c2c1[nH]c(=O)c1sccc12 [Compound 1324, (R)-9-(4-(1-(dimethylamino)propan-2-yl)phenyl)-8-hydroxy-6-methylthieno[2,3-c]quinolin-4(5H)-one hydrochloride] |  | 30 nM |  |  |  |  | IC50 (T47D cells; Homo sapiens): 66 nM; IC50 (A549 cells; Homo sapiens): 24 nM |
| CCN(C)C[C@H](C)c1ccc(-c2c(O)cc(C)c3[nH]c(=O)c4sccc4c23)cc1 [Compound 1379, (R)-9-(4-(1-(ethyl(methyl)amino)propan-2-yl)phenyl)-8-hydroxy-6-methylthieno[2,3-c]quinolin-4(5H)-one hydrochloride] | 280 nM |  | 110 nM |  | 310 nM | 76 nM |  |
| CC[C@@H](CNC)c1ccc(-c2c(O)cc(C)c3[nH]c(=O)c4sccc4c23)cc1 [Compound 1380, (R)-8-hydroxy-6-methyl-9-(4-(1-(methylamino)butan-2-yl)phenyl)thieno[2,3-c]quinolin-4(5H)-one hydrochloride] | 240 nM |  | 96 nM |  | 370 nM | 85 nM |  |
| Cc1cc(O)c(-c2ccc([C@H](C)CN(C)C)c(F)c2)c2c1[nH]c(=O)c1sccc12 [Compound 1399, (S)-9-(4-(1-(dimethylamino)propan-2-yl)-3-fluorophenyl)-8-hydroxy-6-methylthieno[2,3-c]quinolin-4(5H)-one hydrochloride] | 450 nM |  | 180 nM |  | 470 nM | 58 nM |  |
